{"source": "patent US20070264241A1", "about": "“Compounds for Enhanced Cancer Therapy” (priority 2004, published 2007)", "key": {"[1]": {"system": "hGBM-1, hGBM-5 and hGBM-14 glioblastoma cultures", "test": "MTT assay of cell viability and proliferation in primary glioblastoma cultures", "assay_type": "cell-based, human", "procedure": "Proliferation of cultured glioma cells was assessed by 3-(4,5-dimethylthiazol-2-yl)-2,5-diphenyltetrazolium bromide (MTT, Sigma) assay. MTT tetrazolium salt was dissolved in serum-free culture medium (0.5 mg/ml), added to the cells (150 μl/well) and incubated for 30 min at 37° C. Formazan dye, formed by viable cells, was solubilized in 300 μl of isopropanol. Aliquots (100 μl) of the solutions were transferred to 96-well microplates. The absorbance at 570 nm (with reference at 650 nm) was measured using a microtiter plate spectrophotometer (Anthos HT III). The results were expressed as percentage of viablecells compared to the control sample of untreated cells (100%)."}, "[2]": {"system": "Cx43 in human neural stem cells (HNSC.100)", "test": "Western blot analysis for Cx43 in neural stem cells", "assay_type": "cell-based", "conditions": "0.5 mM 4-PB, up to 4 days", "procedure": "Human neural stem cells (HNSC.100 cells, Villa et al Exp Neurol, 2000, 161(1):67-84) were obtained from Alberto Martinez Serrano, Department of Molecular Biology, Center of Molecular Biology Severo Ochoa, Autonomous University of Madrid-CSIC, Campus Cantoblanco, Madrid, 28049, Spain. Neural stem cells were grown to around 50% confluence and then 0.5 mM 4-PB treatment was started and continued for 4 days. Medium was replaced every 2nd day with fresh drug. Whole-cell lysates from three 100 mm petri dishes were solubilized in 100 μl of lysis buffer containing 250 mM Tris-HCl (pH 8.5), 2% SDS, 10% glycerol, 0.05 mM PMSF and protease inhibitor cocktail (Roche). Protein concentrations were quantified using the micro BSA protein assay kit (Pierce). Cell lysates were further mixed with loading buffer containing 1% β-mercaptoethanol, 0.02% bromophenol blue, and 0.1 M DTT. […] For quantification, films were scanned and analyzed with Image Gauge (Version 3.12, Fuji Photo Film Corp.). All results are expressed as means ± SE for the indicated number of experiments (FIG. 13). […] As the bands of protein became visible, the membranes were washed several times and total amount of loaded protein was quantified using computerized densitometric analysis."}, "U87MG cells": {"system": "U87MG cells", "test": "XTT cytotoxicity assay of phenylbutyrate and of nucleoside analogues with or without phenylbutyrate pre-incubation", "assay_type": "cell-based, human", "conditions": "4-phenylbutyrate cytotoxicity assay, incubation 24 hours; read-out: IC50 U87MG (phenylbutyrate alone)", "procedure": "Briefly, cells were harvested by trypsinzation, stained by Tryphan Blue for cell viability counting, seeded in triplicate in 96-well plates (1.000-2.000 cells/well) where after media conditioned with a fixed concentration of phenyl butyrate (3.16 mM) were added to the plates followed by incubation for 24 hours at 37° C. and 5% CO2. Cell proliferation/cytotoxicity was assessed by adding the colour generating substrates of the Cell Proliferation kit II (XTT) from Roche (Cat. No. 1465015) and measuring absorbance at 450 nm and 690 nm with a Thermo Labsystems Multiscan Ascent reader.\n(§1) Cells were seeded at a density of 1.000-2.000 cells/well in 96-well plates. Cells were pre-incubated with 4-phenyl butyrate for 24 hours prior to drug exposure by adding media conditioned with phenyl butyrate at a fixed concentration (3.16 mM). Plated incubated for 24 hours (37° C., 5% CO2) where after media was discarded and replaced by media conditioned with various concentrations of nucleoside analogs (e.g. AZT), 200 μl/well. After 120 hours of drug exposure the experiments were terminated. Cell proliferation/cytotoxicity was assessed by adding the colour generating substrates of the Cell Proliferation kit II (XTT) from Roche (Cat. No. 1465015) and measuring absorbance at 450 nm and 690 nm with a Thermo Labsystems Multiscan Ascent reader.\nThe data was corrected for background media-only absorbance where after the 50% growth inhibitory concentration—IC50 (the dose that inhibits cell growth by 50%) was calculated for each treatment.\nBriefly, cells were harvested by trypsinzation, stained by Tryphan Blue (Cambrex) for cell viability counting, seeded in triplicate in poly-L-lysine (PLL) (Sigma # P6282) coated 96-well plates (1.000-2.000 cells/well) where after media conditioned with a fixed concentration of phenyl butyrate (3.16 mM) was added to the plates followed by incubation for 24 hours at 37° C. and 5% CO2. Cell proliferation/cytotoxicity was assessed by adding the colour generating substrates of the\nas §1, with “cells/well in PLL coated 96-well plates.” for “cells/well in 96-well plates.”, “of nucleoside analogs; AZT (Sigma # A2169), AraC (Sigma # C6645), Cladribine (CdA) (Sigma #C4438), Gancidovir (GCV) (Sigma # G2536) and Gemcitabine (Orifarm), 200 μl/well.” for “of nucleoside analogs (e.g. AZT), 200 μl/well.”, “Ascent reader. he data was corrected for background media-only absorbance where after the 50% growth inhibitory concentration—IC50 (the dose that inhibits cell growth by 50%) was calculated for ach treatment.” for “Ascent reader.”"}}, "note": "“Also recorded” adds a separate entry of the source.", "data": [{"substance": "4-phenylbutyrate [4-PB]", "values": [{"measurement": "anti-proliferative effect by phase contrast microscopy", "setting": "[1]; after 24 hours of treatment", "value": "Anti-proliferative effects were seen"}, {"measurement": "4-PB concentration at which the culture shows significant sensitivity (MTT)", "setting": "[1]; hGBM-1 culture", "value": 5, "unit": "mM"}, {"measurement": "4-PB concentration at which the culture is significantly affected (MTT)", "setting": "[1]; hGBM-5 culture", "value": 10, "unit": "mM"}, {"measurement": "4-PB concentration at which the culture is significantly affected (MTT)", "setting": "[1]; hGBM-14 culture", "value": 10, "unit": "mM"}, {"measurement": "level of Cx43 protein (Western blot)", "setting": "[2]", "value": "increased; also recorded: upregulated"}, {"measurement": "IC50", "setting": "U87MG cells", "value": 4.14, "unit": "mM"}]}]}
